Assay results taken from US20250040554A1, “NEW USES OF PHENMEDIPHAM AND HERBICIDAL COMBINATIONS COMPRISING PHENMEDIPHAM” (BAYER AKTIENGESELLSCHAFT, priority 2021, published 2025).

Tests used:
Type in all cases: in vivo
Details in all cases: 20 g/ha, 15 DAA
[1] = test system: AMARE=Amaranthus retroflexus; experiment: Weed control field trial AMARE
Text: (§1) The respective (combinations of) materials were applied to weed plants in the greenhouse or in the field at the respective growth stage indicated hereinafter for the different weed species mentioned below. The respective (combinations of) active ingredients were also applied to corn, cotton and soybean crop plants, and the selectivity (damage) in these crop plants rated (assessed).
(§2) Visual scoring of the damage to the trial plants took place after the time mentioned in the respective Table—indicated in number of Days After Application (DAA). Damage and development of all above-ground parts of the respective plants was recorded. Visual rating was done on a percentage scale in relation to the untreated control (100%=all plants dead; 50%=green plant biomass reduced by 50%, and 0%=no discernible difference=like control plot).
(§3) wherein • A, B=respective value in percent of active ingredient A at a dose rate of a g/ha, ingredient B at a dose rate of b g/ha • E^C=Expected value according to Colby (S. R. Colby; Weeds 15 (1967), 20-22) in % at a dose rate of a+b, each in g/ha • Δ=Difference (in %) between measured value E and expected value E^C (%) (measured value minus expected value)
(§4) After the harmful plants had emerged, they were treated, at the respective growth stage indicated, with the respective materials as indicated at a water application rate of 187 L/ha.
(§5) After the treatment (15 days after the treatment), the herbicidal activity of respective material was scored visually at the same time by comparing the differently treated plots with the untreated control plots. The score figures of the different plots were averaged.
(§6) The dose rates of herbicidal ingredients used in each case are indicated for the respective active ingredient and refer to the amount of active ingredient per hectare (g/ha).
(§7) The weed control activity of different (combinations of) herbicidal active ingredients was investigated in field trials for the following weed species: • AMARE=Amaranthus retroflexus • KCHSC=Kochia scoparia • PANRA=Panicum ramosum
(§8) The growth stage of AMARE was BBCH 19, the growth stage of KCHSC was BBCH 19 and the growth stage of PANRA was BBCH 22 at the time of application of the respective material.
(§9) Phenmedipham and the respective aroylcyclohexanedione herbicide were applied at varying application rates (Dose Rate) to the different species of weed plants. The results are shown in Tables 4a to 4d as the % control when assessed 15 days after application (DAA), respectively.
(§10) In all the trials of Tables 4a to 4d Mero® (rapeseed oil methyl ester) was added to the respective spray mixture in an amount corresponding to 1 L/ha for PMP, 1 L/ha for the respective aroylcyclohexanedione herbicide, and 2 L/ha for mixtures of PMP+the respective aroylcyclohexanedione herbicide.

KCHSC=Kochia scoparia = experiment: Weed control field trial KCHSC
Text: as §1, §2, §3, §4, §5, §6, §7, §8, §9, §10

PANRA=Panicum ramosum = experiment: Weed control field trial PANRA
Text: as §1, §2, §3, §4, §5, §6, §7, §8, §9, §10

## CS(=O)(=O)c1ccc(C(=O)C2C(=O)CCCC2=O)c(Cl)c1COCC(F)(F)F [TBT, 2-{2-chloro-4-(methylsulfonyl)-3-[(2,2,2-trifluoroethoxy)methyl]benzoyl}cyclohexane-1,3-dione]
[1]
  % control AMARE: 35%
KCHSC=Kochia scoparia
  % control KCHSC: 20%
PANRA=Panicum ramosum
  % control PANRA: 20%

## CS(=O)(=O)c1ccc(C(=O)C2C(=O)CCCC2=O)c(Cl)c1 [SCT, 2-[2-chloro-4-(methylsulfonyl)benzoyl]cyclohexane-1,3-dione]
[1]
  % control AMARE: 5%
KCHSC=Kochia scoparia
  % control KCHSC: 5%
